Like-named read-outs stand apart in the source and are kept apart here.
Tests used:
[1] = tested on: adenylate cyclase; experiment: Stimulation of adenylate cyclase activity in rat reticulocyte membranes; format: biochemical; settings: for Intrinsic Activity, adenylate cyclase: as compared to (-)isoproterenol which was set to 1.0, 10 min; for intrinsic activity (efficacy) in words: compared with (-)isoproterenol; for EC50: rat reticulocyte membranes, mean ±SE, n = 3-6, read-out: EC50 (concentration that produced half-maximal enzyme activation), adenylate cyclase
Procedure: Biochemical Methods. Adenylate Cyclase Activity. Rat reticulocytes were induced and membranes prepared as described by Baker et al, J. Biol. Chem., Vol. 260, p. […] These are the basal conditions. […] At the end of the incubation, 0.3 ml of 10 mM Tris.HCl buffer at pH 7.0 containing 5 mM EDTA was added to each tube and the tubes were placed in a boiling water bath for 5 min. After cooling to room temperature, the tubes were centrifuged for 5 min at 10000 g and the supernatant saved. The cAMP content of the supernatant was determined by a competitive protein binding assay. The amount of cAMP present was calculated from a standard curve determined with unlabeled cAMP. […] Basal and GTP-stimulated activity values were substracted from the values obtained in the presence of ligands and the concentration of ligands that produced half-maximal activity (EC50) were determined by using a dose-effect analysis with an Apple IIe computer. Membrane protein content was determined by the Lowry method with bovine serum albumin as standard.

[2] = target: T1, beta-adrenergic receptor (Rattus norvegicus, UniProt P10608); experiment: [^125 I]iodocyanopindolol (CYP) competition binding to the beta-adrenergic receptor in rat reticulocyte membranes
Procedure: β-Adrenergic Receptor Binding. […] At the end of the incubation, the suspensions were diluted with 4 ml of ice-cold incubation buffer and poured onto Whatman GF/B glass fiber filters under reduced pressure. Each filter was washed with a further 8 ml of ice-cold buffer, placed in a scintillation vial, and counted. Specific binding to the receptor was calculated as the difference between total binding determined in the absence of alprenolol and the nonspecific binding determined in the presence of alprenolol. […] All data was statistically analyzed by using a one-way analysis of variance (ANOVA).

[3] = tested on: ornithine decarboxylase; experiment: Induction of ornithine decarboxylase activity in the rat lung; format: in vivo; settings: for Fold increase of ornithine decarboxylase activity over the basal level / Ornithine decarboxylase activity: rat lung
[4] = tested on: adenylate cyclase; experiment: Time course of cAMP production in rat reticulocytes with propranolol addition (FIG. 3); format: biochemical; settings: for cAMP production after propranolol added during incubation: propranolol added after 9 min ((-)isoproterenol) or 7 min (structure 13); for cAMP production, linearity with time: without propranolol; for irreversible binding and response at the beta-adrenergic receptor: conclusion from FIG. 3 and binding data
Procedure: Biochemical Methods. Adenylate Cyclase Activity. Rat reticulocytes were induced and membranes prepared as described by Baker et al, J. Biol. Chem., Vol. 260, p. 15820 (1985). […] These are the basal conditions. When stimulation of activity was measured, the assay also contained 0.5 mM GTP and varying concentrations of (-)-isoproterenol or the carbostyril derivatives. At the end of the incubation, 0.3 ml of 10 mM Tris.HCl buffer at pH 7.0 containing 5 mM EDTA was added to each tube and the tubes were placed in a boiling water bath for 5 min. After cooling to room temperature, the tubes were centrifuged for 5 min at 10000 g and the supernatant saved. The cAMP content of the supernatant was determined by a competitive protein binding assay. The amount of cAMP present was calculated from a standard curve determined with unlabeled cAMP. Enzyme activity was linear with time and protein through 10 min and 0.1 mg, respectively. Basal and GTP-stimulated activity values were substracted from the values obtained in the presence of ligands and the concentration of ligands that produced half-maximal activity (EC50) were determined by using a dose-effect analysis with an Apple IIe computer. Membrane protein content was determined by the Lowry method with bovine serum albumin as standard.

[5] = tested on: beta-2; settings: Yoshizaki et al, J. Med. Chem. 1977; cited from earlier work
[6] = tested on: beta-adrenergic receptors; experiment: Loss of beta-adrenergic receptors in rat tissues after i.p. injection; format: in vivo; settings: for Specific Ligand Binding / % reduction of receptors from controls: 3 hr; for beta-2-receptor selectivity in vivo: receptor loss in rat tissues
Procedure: Rats were injected i.p. with either 2 or 5 mg/kg of structure (13) and 3 hr. later, the tissues were removed and assayed for the beta-adrenergic receptor content.

[7] = target: T1, beta-adrenergic receptor; experiment: Washout experiment: irreversible binding after membrane pretreatment with compound 13; parameters: membranes prepared from rat reticulocytes; from tissue; host or cells: rat reticulocytes (blood cells), membranes; endogenous receptor
Procedure: In the pretreatment experiments, reticulocyte membrane protein (3 mg/ml) was incubated in 50 mM Tris·HCl buffer at pH 7.4, containing 5 mM MgCl2 without and with 20 nM compound 13 for 30 min at 32° C. A parallel incubation was also performed containing 20 nM compound 13 plus 10 μM nadolol. At the end of the incubation the tubes were filled (30 ml) with ice-cold incubation buffer and centrifuged at 48000 g for 15 min. The pellets were washed three more times by centrifugation and resuspension and the final pellets were resuspended in 1 ml of incubation buffer for assay. The membrane content of β-adrenergic receptors was determined with (-)-^125 I]-iodocyanopindolol (10-100 pM) as described above. The binding maximums and dissociation constants (KD) were determined from linear regression analysis of Scatchard plots.
Irreversible binding of compound (13) to the reticulocyte β-adrenergicreceptor was indicated by washout experiments.

[8] = 0.1 mg/kg i.p., 3 hours, basal 1.9 + 0.4
[9] = 0.1 mg/kg plus propranolol (5 mg/kg, 30 min before)
[10] = listed as structure wherein X is NHCOCH2 Br

T1 sequence (P10608 whole entry): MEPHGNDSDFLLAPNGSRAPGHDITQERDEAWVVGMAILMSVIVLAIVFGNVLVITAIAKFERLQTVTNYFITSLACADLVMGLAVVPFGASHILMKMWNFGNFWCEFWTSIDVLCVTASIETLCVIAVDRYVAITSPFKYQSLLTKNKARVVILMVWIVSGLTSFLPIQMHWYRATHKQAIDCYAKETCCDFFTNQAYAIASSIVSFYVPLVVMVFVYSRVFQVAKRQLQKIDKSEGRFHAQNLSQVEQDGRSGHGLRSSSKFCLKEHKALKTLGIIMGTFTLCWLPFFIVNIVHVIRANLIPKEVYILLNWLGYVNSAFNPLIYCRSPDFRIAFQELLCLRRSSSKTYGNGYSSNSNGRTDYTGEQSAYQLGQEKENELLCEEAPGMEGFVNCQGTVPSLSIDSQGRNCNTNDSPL

## CC(C)(Cc1ccc(I)cc1)NCC(O)c1ccc(O)c2[nH]c(=O)ccc12 (stereo not drawn) [Compound 11, 5-[2-[[1-(4-Iodophenyl)-2-methylprop-2-yl]amino]-1-hydroxyethyl]-8-hydroxycarbostyril]
[1]
  Intrinsic Activity, adenylate cyclase: 1.3
  intrinsic activity (efficacy) in words: higher intrinsic activities than (-)isoproterenol
  EC50: 5.6 ± 1.4 nM
[2]
  IC50: 7.6 ± 1.3 nM

## (-)isoproterenol [reference compound]
[1]
  Intrinsic Activity, adenylate cyclase: 1.0
  EC50: 226 ± 1.4 nM
[3]; 0.1 mg/kg i.p., 3 hours
  Fold increase of ornithine decarboxylase activity over the basal level: 6.5 fold
[3]; [8]
  Ornithine decarboxylase activity: 11.8 + 1.7 nmol CO2 Formed/g tissue/hr
[3]; 0.1 mg/kg i.p., 3 hours, listed as (-)Isoproterenol
  Fold increase of ornithine decarboxylase activity over the basal level: 6.2 fold
[3]; [9]
  Ornithine decarboxylase activity: 0.4 ± 0.09 nmol CO2 Formed/g tissue/hr
[2]; read-out: IC50 (concentration that inhibited CYP binding by 50%), rat reticulocyte membranes, mean ±SE, n = 3-6, 60 min
  IC50: 327 ± 17 nM
[4]
  cAMP production after propranolol added during incubation: no further cAMP was produced
  cAMP production, linearity with time: linear through 14 min

## CC[C@H](NC(C)C)[C@H](O)c1ccc(O)c2[nH]c(=O)ccc12 (relative stereo) [procaterol, erythro-5-(1-hydroxy-2-isopropylaminobutyl)-8-hydroxycarbostyril]
[5]
  beta-2 agonist and bronchodilator activity in words: potent beta-2 agonist and a bronchodilator

## CC(C)(Cc1ccc(NC(=O)CBr)cc1)NCC(O)c1ccc(O)c2nc(O)ccc12 (stereo not drawn) [Compound 13]
[6]; cerebral cortex, 5 mg/kg
  loss of receptors in words: no significant loss of receptors
[6]; cerebral cortex, 5 mg/kg i.p., control 119 ± 10
  Specific Ligand Binding: 114 ± 14 fmol/mg protein
[6]; heart or submaxillary gland, 5 mg/kg vs 2 mg/kg
  loss of receptors in words: no further loss of receptors was detected
[6]; heart, 2 mg/kg i.p.
  % reduction of receptors from controls: 23%
[6]; heart, 2 mg/kg i.p., control 22.3 ± 1.0
  Specific Ligand Binding: 17.1 ± 0.5 fmol/mg protein
[6]; heart, 5 mg/kg i.p.
  % reduction of receptors from controls: 15%
[6]; heart, 5 mg/kg i.p., control 22.3 ± 1.0
  Specific Ligand Binding: 18.9 ± 0.8 fmol/mg protein
[6]; inferred from lack of receptor loss in cerebral cortex
  blood brain barrier penetration: cannot cross the blood brain barrier
[6]; lung, 2 mg/kg i.p.
  % reduction of receptors from controls: 52%
[6]; lung, 2 mg/kg i.p., control 658 ± 27
  Specific Ligand Binding: 318 ± 23 fmol/mg protein
[6]; lung, 5 mg/kg i.p.
  % reduction of receptors from controls: 75%
[6]; lung, 5 mg/kg i.p., control 658 ± 27
  Specific Ligand Binding: 166 ± 9 fmol/mg protein
[6]
  beta-2-receptor selectivity in vivo: receptor reductions were mainly due to losses of beta-2 receptors
[6]; [10]
  beta-2-receptor selectivity in vivo: high degree of beta-2-receptor selectivity in vivo
[6]; spleen, 2 mg/kg i.p.
  % reduction of receptors from controls: 42%
[6]; spleen, 2 mg/kg i.p., control 53.2 ± 1.8
  Specific Ligand Binding: 31 ± 4 fmol/mg protein
[6]; spleen, 5 mg/kg i.p.
  % reduction of receptors from controls: 65%
[6]; spleen, 5 mg/kg i.p., control 53.2 ± 1.8
  Specific Ligand Binding: 19 ± 1.2 fmol/mg protein
[6]; submaxillary gland, 2 mg/kg i.p.
  % reduction of receptors from controls: 23%
[6]; submaxillary gland, 2 mg/kg i.p., control 98 ± 5.8
  Specific Ligand Binding: 75 ± 3 fmol/mg protein
[6]; submaxillary gland, 5 mg/kg i.p.
  % reduction of receptors from controls: 21%
[6]; submaxillary gland, 5 mg/kg i.p., control 98 ± 5.8
  Specific Ligand Binding: 77 ± 3.7 fmol/mg protein
[1]
  Intrinsic Activity, adenylate cyclase: 1.2
  intrinsic activity (efficacy) in words: higher intrinsic activities than (-)isoproterenol
  EC50: 8.5 ± 3.5 nM
[3]; 0.1 mg/kg i.p., 3 hours
  Fold increase of ornithine decarboxylase activity over the basal level: 4.6 fold
[3]; [8]
  Ornithine decarboxylase activity: 8.7 + 0.5 nmol CO2 Formed/g tissue/hr
[3]; [9]
  Ornithine decarboxylase activity: 0.4 ± 0.06 nmol CO2 Formed/g tissue/hr
[7]; 20 nM compound 13, four wash cycles, control 576±22, mean ±SD, n=3
  receptor concentration after pretreatment and washout: 168±15 fmol/mg of protein
[7]; 0.5 h, 20 nM compound 13, four wash cycles, read-out: decrease in the receptor concentration after pretreatment and washout
  inhibition at 0.02 µM: 71%
[7]; compound 13 treated membranes (20 nM), control 13±3, read-out: KD value for (-)-[^125 I]iodocyanopindolol binding to the remaining receptors
  Kd: 0.011 ± 0.002 nM
[2]
  IC50: 5.3 ± 0.8 nM
[4]
  irreversible binding and response at the beta-adrenergic receptor: irreversibly binds to the beta-adrenergic receptor and produces an irreversible response
  cAMP production after propranolol added during incubation: no change in the rate of cAMP production occurred
  cAMP production, linearity with time: linear through 14 min
[4]; [10]
  irreversible binding and response at the beta-adrenergic receptor: appears to bind irreversibly to the receptor and produce irreversible agonist effects
[4]; propranolol added with structure 13 at time 0
  cAMP production with propranolol added at time 0: stimulation of cAMP production was blocked

## CC(C)(Cc1ccc(N)cc1)NCC(O)c1ccc(O)c2[nH]c(=O)ccc12 (stereo not drawn) [Compound 12]
[1]
  Intrinsic Activity, adenylate cyclase: 1.0
  intrinsic activity (efficacy) in words: equal to the intrinsic activity (efficacy) of (-)isoproterenol
  EC50: 14.2 ± 4.7 nM
[2]
  IC50: 22 ± 3 nM

## CC(C)(C)NCC(O)COc1cccc2c1CC(O)C(O)C2 (stereo not drawn) [nadolol, reference compound]
[7]; nadolol 10 μM in preincubation with compound 13
  prevention of loss of specific binding sites by nadolol: the loss of specific binding sites was completely prevented

## CC(C)NCC(O)COc1cccc2ccccc12 (stereo not drawn) [propranolol]
[3]; propranolol 5 mg/kg 30 min before (-)isoproterenol or compound 13
  blocking of ornithine decarboxylase induction: completely blocked
